Our source for the IC50 values is US20230278996A1, “YKL-40 INHIBITORS AND THEIR THERAPEUTIC APPLICATIONS” (Molecure S.A., priority 2022, published 2023).

Usually IC50 stands for the midpoint of a concentration-inhibition curve. Read a high IC50 as weaker potency.

For the experiment, the target named is YKL-40 (Homo sapiens (Human), UniProt P36222). Put plainly: YKL-40:4 assay, competitive chitin binding site AlphaScreen. As to conditions: competition with biotinylated compound 4 (20 nM), YKL-40-histag 2.5 nM. In general terms: In Alpha technology, singlet oxygen from a donor bead excites a nearby acceptor bead.
Chain of YKL-40 (P36222 22-383): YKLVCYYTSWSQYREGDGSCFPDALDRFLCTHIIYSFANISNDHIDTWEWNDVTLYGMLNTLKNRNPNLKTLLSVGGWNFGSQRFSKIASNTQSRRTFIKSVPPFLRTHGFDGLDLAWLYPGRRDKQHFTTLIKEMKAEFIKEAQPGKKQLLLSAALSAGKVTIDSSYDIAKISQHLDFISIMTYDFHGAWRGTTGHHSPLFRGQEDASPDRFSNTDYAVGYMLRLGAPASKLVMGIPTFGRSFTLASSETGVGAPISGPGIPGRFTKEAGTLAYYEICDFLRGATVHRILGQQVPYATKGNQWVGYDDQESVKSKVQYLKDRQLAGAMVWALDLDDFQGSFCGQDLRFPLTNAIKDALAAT

Each structure is given as a SMILES string. Structures can show the parent of a compound that is named as a salt.

As for `CC1CC(N2C[C@H](C)OC[C@@H]2Cc2ccc(Cl)cc2)CCN1c1cc(Cl)ccn1` (single isomer, unassigned) [Example 31, 2,2,2-trifluoroacetate], the IC50 lay within 1 to 10 µM. Under `CC1CC(N2C[C@H](C)OC[C@@H]2Cc2ccc(Cl)cc2)CCN1c1cc(Cl)ccn1` (single isomer, unassigned) [Example 32, 2,2,2-trifluoroacetate] stands less than 0.1 µM; under `CC(C)C[C@H]1CN(C2CCN(c3ccccn3)CC2)[C@@H](Cc2ccc(Cl)cc2)CN1C(=O)OC(C)(C)C` [Example 2e, tert-butyl (2S,5S)-5-(4-chlorobenzyl)-2-isobutyl-4-(1-(pyridin-2-yl)piperidin-4-yl)piperazine-1-carboxylate], more than 100 µM. In turn, `COCCOCCOCCOCCOCCOCCOCCOCCOCCOCCOCCOCCC(=O)OC[C@H]1CN(C2CCN(c3ccccn3)CC2)[C@@H](Cc2ccc(Cl)cc2)CO1` [Example 7, ((2R,5S)-5-(4-chlorobenzyl)-4-(1-(pyridin-2-yl)piperidin-4-yl)morpholin-2-yl)methyl 2,5,8,11,14,17,20,23,26,29,32,35-dodecaoxaoctatriacontan-38-oate 2,2,2-trifluoroacetate] showed an IC50 of 0.1 to 1 µM. The compound `C[C@H]1CN(C2CCN(C(=O)OC(C)(C)C)CC2)[C@@H](Cc2ccc(Cl)cc2)CO1` [Example 8d, tert-butyl 4-((2S,5S)-5-(4-chlorobenzyl)-2-methylmorpholino)piperidine-1-carboxylate] registered an IC50 of more than 100 µM. Under `C[C@H]1CN(C2CCN(c3ccc(F)cn3)CC2)[C@@H](Cc2ccc(Cl)cc2)CO1` [Example 9, (2S,5S)-5-(4-chlorobenzyl)-4-(1-(5-fluoropyridin-2-yl)piperidin-4-yl)-2-methylmorpholine 2,2,2-trifluoroacetate] stands 1 to 10 µM; under `C[C@H]1CN(C2CCN(c3ccc(Cl)cn3)CC2)[C@@H](Cc2ccc(Cl)cc2)CO1` [Example 11, (2S,5S)-5-(4-chlorobenzyl)-4-(1-(5-chloropyridin-2-yl)piperidin-4-yl)-2-methylmorpholine 2,2,2-trifluoroacetate], 0.1 to 1 µM. The compound `C[C@H]1CN(C2CCN(c3cnccn3)CC2)[C@@H](Cc2ccc(Cl)cc2)CO1` [Example 12, (2S,5S)-5-(4-chlorobenzyl)-2-methyl-4-(1-(pyrazin-2-yl)piperidin-4-yl)morpholine 2,2,2-trifluoroacetate] gave an IC50 of 1 to 10 µM. `C[C@H]1CN(C2CCN(c3cccc(Cl)n3)CC2)[C@@H](Cc2ccc(Cl)cc2)CO1` [Example 14, (2S,5S)-5-(4-chlorobenzyl)-4-(1-(6-chloropyridin-2-yl)piperidin-4-yl)-2-methylmorpholine 2,2,2-trifluoroacetate]: the IC50 was 1 to 10 µM. The result for `C[C@H]1CN(C2CCN(c3ccnc(F)c3)CC2)[C@@H](Cc2ccc(Cl)cc2)CO1` [Example 15, (2S,5S)-5-(4-chlorobenzyl)-4-(1-(2-fluoropyridin-4-yl)piperidin-4-yl)-2-methylmorpholine 2,2,2-trifluoroacetate] reads 1 to 10 µM. The compound `Cc1cccnc1N1CCC(N2C[C@H](C)OC[C@@H]2Cc2ccc(Cl)cc2)CC1` [Example 16, (2S,5S)-5-(4-chlorobenzyl)-2-methyl-4-(1-(3-methylpyridin-2-yl)piperidin-4-yl)morpholine 2,2,2-trifluoroacetate] displayed an IC50 of more than 100 µM. The result for `C[C@H]1CN(C2CCN(c3cccc(C#N)n3)CC2)[C@@H](Cc2ccc(Cl)cc2)CO1` [Example 18, 6-(4-((2S,5S)-5-(4-chlorobenzyl)-2-methylmorpholino)piperidin-1-yl)picolinonitrile 2,2,2-trifluoroacetate] reads more than 100 µM. Under `C[C@H]1CN(C2CCN(c3ccc(C#N)cn3)CC2)[C@@H](Cc2ccc(Cl)cc2)CO1` [Example 19, 6-(4-((2S,5S)-5-(4-chlorobenzyl)-2-methylmorpholino)piperidin-1-yl)nicotinonitrile 2,2,2-trifluoroacetate] stands more than 100 µM. The compound `C[C@H]1CN(C2CCN(c3cc(C(F)(F)F)ccn3)CC2)[C@@H](Cc2ccc(Cl)cc2)CO1` [Example 20, (2S,5S)-5-(4-chlorobenzyl)-2-methyl-4-(1-(4-(trifluoromethyl)pyridin-2-yl)piperidin-4-yl)morpholine 2,2,2-trifluoroacetate] gave an IC50 of 1 to 10 µM. Under `C[C@H]1CN(C2CCN(c3ncccc3C#N)CC2)[C@@H](Cc2ccc(Cl)cc2)CO1` [Example 22, 2-(4-((2S,5S)-5-(4-chlorobenzyl)-2-methylmorpholino)piperidin-1-yl)nicotinonitrile 2,2,2-trifluoroacetate] stands 0.1 to 1 µM; under `C[C@H]1CN(C2CCN(c3ncccc3Cl)CC2)[C@@H](Cc2ccc(Cl)cc2)CO1` [Example 23, (2S,5S)-5-(4-chlorobenzyl)-4-(1-(3-chloropyridin-2-yl)piperidin-4-yl)-2-methylmorpholine 2,2,2-trifluoroacetate], 1 to 10 µM. Under `C[C@H]1CN(C2CCN(c3cc(F)ncn3)CC2)[C@@H](Cc2ccc(Cl)cc2)CO1` [Example 24, (2S,5S)-5-(4-chlorobenzyl)-4-(1-(6-fluoropyrimidin-4-yl)piperidin-4-yl)-2-methylmorpholine 2,2,2-trifluoroacetate] stands more than 100 µM; under `C[C@H]1CN(C2CCN(c3ncc(F)cc3F)CC2)[C@@H](Cc2ccc(Cl)cc2)CO1` [Example 25, (2S,5S)-5-(4-chlorobenzyl)-4-(1-(3,5-difluoropyridin-2-yl)piperidin-4-yl)-2-methylmorpholine 2,2,2-trifluoroacetate], more than 100 µM. The result for `C[C@H]1CN(C2CCN(c3ccncn3)CC2)[C@@H](Cc2ccc(Cl)cc2)CO1` [Example 26, (2S,5S)-5-(4-chlorobenzyl)-2-methyl-4-(1-(pyrimidin-4-yl)piperidin-4-yl)morpholine 2,2,2-trifluoroacetate] reads more than 100 µM; that for `C[C@H]1CN(C2CCN(c3cccnc3)CC2)[C@@H](Cc2ccc(Cl)cc2)CO1` [Example 27, (2S,5S)-5-(4-chlorobenzyl)-2-methyl-4-(1-(pyridin-3-yl)piperidin-4-yl)morpholine 2,2,2-trifluoroacetate], more than 100 µM.

`C[C@H]1CN(C2CCN(c3ccncc3)CC2)[C@@H](Cc2ccc(Cl)cc2)CO1` [Example 28, (2S,5S)-5-(4-chlorobenzyl)-2-methyl-4-(1-(pyridin-4-yl)piperidin-4-yl)morpholine 2,2,2-trifluoroacetate] came in with an IC50 of more than 100 µM. The result for `COc1ccnc(N2CCC(N3C[C@H](C)OC[C@@H]3Cc3ccc(Cl)cc3)CC2)c1` [Example 29, (2S,5S)-5-(4-chlorobenzyl)-4-(1-(4-methoxypyridin-2-yl)piperidin-4-yl)-2-methylmorpholine 2,2,2-trifluoroacetate] reads 0.1 to 1 µM; that for `Cc1cnnc(N2CCC(N3C[C@H](C)OC[C@@H]3Cc3ccc(Cl)cc3)CC2)c1` [Example 30, (2S,5S)-5-(4-chlorobenzyl)-2-methyl-4-(1-(5-methylpyridazin-3-yl)piperidin-4-yl)morpholine 2,2,2-trifluoroacetate], 1 to 10 µM; that for `CC1CC(N2C[C@H](C)OC[C@@H]2Cc2ccc(Cl)cc2)CCN1c1cc(Cl)ccn1` (stereo partly drawn) [Example 33, (2S,5S)-5-(4-chlorobenzyl)-4-(1-(4-chloropyridin-2-yl)-2-methylpiperidin-4-yl)-2-methylmorpholine 2,2,2-trifluoroacetate], 1 to 10 µM.

In the case of `CC1CC(N2C[C@H](C)OC[C@@H]2Cc2ccc(Cl)cc2)CCN1c1cc(Cl)ccn1` (stereo partly drawn) [Example 34, (2S,5S)-5-(4-chlorobenzyl)-4-(1-(4-chloropyridin-2-yl)-2-methylpiperidin-4-yl)-2-methylmorpholine 2,2,2-trifluoroacetate], the IC50 lay in the range of 0.1 to 1 µM. Under `C[C@H]1CN(C2CCN(c3ccccc3)CC2)[C@@H](Cc2ccc(Cl)cc2)CO1` [Example 37, (2S,5S)-5-(4-chlorobenzyl)-2-methyl-4-(1-phenylpiperidin-4-yl)morpholine dihydrochloride] stands more than 100 µM; under `Clc1ccc(C[C@H]2CN3CCC[C@H]3CN2C2CCN(c3ccccn3)CC2)cc1` [Example 38, (3S,8aS)-3-(4-chlorobenzyl)-2-(1-(pyridin-2-yl)piperidin-4-yl)octahydropyrrolo[1,2-α]pyrazine 2,2,2-trifluoroacetate], less than 0.1 µM; under `Cc1ccnc(N2CCC(N3C[C@H](C)OC[C@@H]3Cc3ccc(Cl)cc3)CC2)n1` [Example 39, (2S,5S)-5-(4-chlorobenzyl)-2-methyl-4-(1-(4-methylpyrimidin-2-yl)piperidin-4-yl)morpholine dihydrochloride], 0.1 to 1 µM. The result for `O[C@@H]1C[C@H]2CN(C3CCN(c4ncccn4)CC3)[C@@H](Cc3ccc(Cl)cc3)CN2C1` [Example 40, (3S,7R,8aS)-3-(4-chlorobenzyl)-2-(1-(pyrimidin-2-yl)piperidin-4-yl)octahydropyrrolo[1,2-α]pyrazin-7-ol 2,2,2-trifluoroacetate] reads 0.1 to 1 µM; that for `Cc1ccnc(N2CCC(N3C[C@@H]4C[C@@H](O)CN4C[C@@H]3Cc3ccc(Cl)cc3)CC2)n1` [Example 41, (3S,7R,8aS)-3-(4-chlorobenzyl)-2-(1-(4-methylpyrimidin-2-yl)piperidin-4-yl)octahydropyrrolo[1,2-α]pyrazin-7-ol 2,2,2-trifluoroacetate], 0.1 to 1 µM; that for `O[C@H]1C[C@H]2CN(C3CCN(c4ncccn4)CC3)[C@@H](Cc3ccc(Cl)cc3)CN2C1` [Example 42, (3S,7S,8aS)-3-(4-chlorobenzyl)-2-(1-(pyrimidin-2-yl)piperidin-4-yl)octahydropyrrolo[1,2-α]pyrazin-7-ol 2,2,2-trifluoroacetate], 0.1 to 1 µM. The result for `Cc1ccnc(N2CCC(N3C[C@@H]4C[C@H](O)CN4C[C@@H]3Cc3ccc(Cl)cc3)CC2)n1` [Example 43, (3S,7S,8aS)-3-(4-chlorobenzyl)-2-(1-(4-methylpyrimidin-2-yl)piperidin-4-yl)octahydropyrrolo[1,2-α]pyrazin-7-ol 2,2,2-trifluoroacetate] reads 0.1 to 1 µM.
